# System: Platelet
# Experiment: Tumor cell (Lewis Lung Carcinoma, 3LL) induced platelet aggregation (TCIPA)
# Format: cell-based, human
# Conditions: 3LL cells
# Description: Blood (45 ml) was drawn from the […] vein of healthy, fasted, aspirin free (at least two weeks) human volunteers into a plastic syringe containing 5 ml of 4.8% dextrose with 50 U/ml heparin buffered by 25 mM HEPES, pH 7.5. An 18 gauge needle was used to prevent hemolysis. The heparinized blood was gently mixed by inverting the syringe five times and then the blood was transfused into two 40 ml plastic centrifuge tubes and centrifuged for 10 min at 163×g. The resulting platelet rich plasma (PRP; the supernatant fraction) was decanted using an adjustable SMI pipette set at 6 ml. Platelet poor plasma (PPP) was prepared by centrifugation of PRP for 10 min at 1086×g. Platelet poor plasma was used to standardize the platelet concentration in PRP to 3×10^8 /ml. Platelet concentrations were determined using a Coulter Model ZBI cell counter.
# Platelet aggregation was measured photometrically using a Sienco Model DP-247E dual channel aggregometer and recorded on a Sienco Model B-5000 dual channel recorder. Aliquots of PRP (250 microliters at 3×10^8 platelets/ml) were transferred into aggregometry cuvettes and stirred at a constant speed of 800 RPM at 37° C. Platelet aggregation studies were designed and run as individually controlled samples. BAY e 9736 was dissolved in either PEG-400 or […] (DMSO).
# BAY e 9736 in PEG-400 alone was aliquoted into the cuvettes prior to the addition of the PRP. Immediately after the addition of the PRP, the cuvettes were placed into the aggregometer. After two minutes (to allow for the stabilization of the platelet preparation and mixing of the BAY e 9736), ADP or tumor cells were added in 20 microliter aliquots to induce platelet aggregation.
# The calcium channel blocker nifedipine was tested for its ability to inhibit tumor cell induced platelet aggregation (TCIPA). Nifedipine (20 mg) was dissolved in one milliliter of abolute ethanol:PEG-400 (1:1), and then diluted 1:10 with the same ethanol:PEG-400 mixture. […]
smiles,measurement,setting,value
COC(=O)C1=C(C)NC(C)=C(C(=O)OC)C1c1ccccc1[N+](=O)[O-] [nifedipine],effect on tumor cell induced platelet aggregation (in words),,can inhibit TCIPA in a dose dependent fashion
same,inhibition at 15 µg/mL,"Homo sapiens, 0.015 mg/ml, read-out: INHIBITION OF CONTROL TCIPA",22%
same,inhibition at 150 µg/mL,"Homo sapiens, 0.15 mg/ml, read-out: INHIBITION OF CONTROL TCIPA",42%
